Data taken from PubChem BioAssay (NCI).
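Dose response: 5 concentrations. Exposure: 48 h. Format: 96-well plates. Endpoint: linear interpolation; highest concentration if not reached. TGI marks complete inhibition of growth.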

How the values were obtained:
Assay in all cases: NCI-60 cell line screen, 48 h
NCI-H522 lung = tested on: NCI-H522 lung
MALME-3M melanoma = tested on: MALME-3M melanoma
KM12 colon = tested on: KM12 colon
HOP-62 NSCLC = tested on: HOP-62 NSCLC
HCT-116 colon = tested on: HCT-116 colon
CCRF-CEM leukemia = tested on: CCRF-CEM leukemia
MDA-MB-231 breast = tested on: MDA-MB-231 breast
HS 578T breast = tested on: HS 578T breast
SN12C renal = tested on: SN12C renal
HL-60(TB) leukemia = tested on: HL-60(TB) leukemia
NCI-H226 lung = tested on: NCI-H226 lung
BT-549 breast = tested on: BT-549 breast
RXF 393 renal = tested on: RXF 393 renal
SW-620 colon = tested on: SW-620 colon
U251 CNS = tested on: U251 CNS

Compound	TGI (NCI-H522 lung) [µM]	TGI (MALME-3M melanoma) [µM]	TGI (KM12 colon) [µM]	TGI (HOP-62 NSCLC) [µM]	TGI (HCT-116 colon) [µM]	TGI (CCRF-CEM leukemia) [µM]	TGI (MDA-MB-231 breast) [µM]	TGI (HS 578T breast) [µM]	TGI (SN12C renal) [µM]	TGI (HL-60(TB) leukemia) [µM]	TGI (NCI-H226 lung) [µM]	TGI (BT-549 breast) [µM]	TGI (RXF 393 renal) [µM]	TGI (SW-620 colon) [µM]	TGI (U251 CNS) [µM]
CC(C)/C=N\n1c(N)c(C#N)c(C#N)c1C(C)C	> 100	98.1	> 100	> 100	> 100	> 100	> 100	95.3	> 100	> 100	64.6	> 100	> 100	> 100	> 100
CN(C)CCNc1ccc2c(=O)n(CCN(C)C)c(=O)n3c4ccc(N)cc4c(=O)c1c23	0.0832	0.352	7.52	1.15	0.166	0.16	0.866	1.3	0.306	0.278	0.573	1.87	0.263	0.637	0.988
O=C(Nc1nc(C23CC4CC(CC(C4)C2)C3)cs1)c1cc2cc(Br)cc(Br)c2oc1=O	> 100	> 100	> 100	> 100	> 100	> 100	> 100	79.7	> 100	> 100	> 100	> 100	> 100	> 100	41.5
COC(=O)C1(O)c2ccccc2N=C2C(=O)c3ccccc3N21 (stereo not given)	> 100	> 100	> 100	> 100	> 100	> 100	> 100	> 100	> 100	> 100	> 100	> 100	> 100	> 100	> 100
O=C1/C(=C\c2cccc(Oc3ccccc3)c2)SC(c2ccccc2)N1c1ccc(Cl)cc1 (stereo not given)	96.9	> 100	> 100	> 100	> 100	> 63.6	> 100	> 100	> 100	> 100	> 100	> 100	> 100	> 100	> 100
[N-]=[N+]=Nc1ccc2c(c1)Sc1ccccc1N2CCCCCl	> 100	> 100	> 100	> 100	> 100	> 100	> 100	> 100	> 100	64.3	> 100	> 100	> 100	> 100	> 100
OC1CC(O)c2c(Cl)sc(Cl)c21 (stereo not given)	56.8	> 100	> 100	98.4	> 100	> 100	> 100	82.4	> 100	> 100	> 100	> 100	11.5	> 100	> 100
O=C1CCCc2cc3c(cc21)CCC3C(=O)O (stereo not given)	> 100	> 100	> 100	> 100	> 100	> 100	> 100	> 100	> 100	> 100	> 100	> 100	> 100	> 100	> 100
CCN(CC)CCS(=O)c1c2cc(OC)ccc2nc2ccc(OC)cc12 (stereo not given)	1.38	2.51	> 57.5	44.8	4.55	> 25.6	28.4	29.1	9.64	> 100	39.5	31.2	24.6	> 21.9	> 60.6
COc1cc(-c2coc3c(OC)c(OC4OC(CO)C(O)C(O)C4O)c(OC)cc3c2=O)cc(OC)c1C (stereo not given)	11.1	29.7	28.3	44.1	> 100	> 41.7	> 54.5	15.4	51.8	> 100	68.1	16.1	8.85	> 41.3	> 34.6
CC1N(C)C(=O)OC12CCN(CCCC(=O)c1ccc(F)cc1)CC2 (stereo not given)	> 100	> 100	> 100	> 100	> 100	> 100	> 100	> 100	> 100	> 100	> 100	> 100	> 100	> 100	> 100
C=C1C(=O)C23CC1C[C@H](OC(C)=O)C2C1(C)C(OC(C)=O)C[C@H](O)C(C)(C)[C@H]1C(O)[C@@H]3OC(C)=O (stereo not given in full)	3.34	19.9	> 54.5	33.8	16.2	8.25	18.6	41.9	20.7	6.11	45	13.5	19.9	6.14	28.9
CC(=O)CCC[C@@H](C)[C@@H]1O[C@H]([C@@]2(C)CCC(=O)O2)C[C@H]2C(CSc3ccccc3)C(=O)O[C@@H]12 (stereo not given in full)	15.2	> 42.5	28.9	> 100	31.2	24.9	37.3	> 41.6	34.2	12.8	37.5	27.5	15.9	28.8	36.3
NC1=NC(OCC2(CO)CCC2)C=C(NCC2(CO)CCC2)N1 (stereo not given)	> 100	> 100	> 100	> 100	> 100	> 100	> 100	> 100	> 100	> 100	> 100	> 100	> 100	> 100	> 100
O=C1CC2(CCC(O)(c3ccc(Cl)cc3)C(C(=O)c3ccc(Cl)cc3)C2)C(=O)c2ccccc2N1 (stereo not given)	> 100	> 68.4	> 100	> 100	> 100	26.6	30.6	7.44	24.8	> 31.6	> 52.5	49.9	22.3	> 100	> 31.9
O=[N+]([O-])c1cccc2nccc(NCC(O)CO)c12 (stereo not given)	26	28.4	28.7	33.6	26.8	> 89.9	45	40.7	41	49.4	19.4	29.6	26.4	36.1	32.6
Cc1ccccc1N(C)S(=O)(=O)c1ccccc1[N+](=O)[O-]	> 100	> 100	> 100	> 100	> 100	> 100	> 100	> 100	> 100	> 100	> 100	> 100	83	> 100	> 100
O=c1c2cccnc2nc2ccc3c[nH][nH]c3c12	> 10	> 10	> 10	> 10	> 10	> 10	> 10	> 10	> 10	> 10	> 10	> 10	> 10	> 10	> 10
COc1ccc(OC)c2nc3c(C(=O)NCCN(C)C)cccc3nc12	13.4	27.3	22.3	35.7	20.6	11	19.3	29.6	> 36.1	16.5	27.5	33	23.2	21.7	28.6
C/C=C(/C)C(=O)O[C@H]1C(C)=C[C@]23C(=O)[C@@H](C=C(COC(C)=O)[C@@H](O)[C@]12O)[C@H]1[C@@H](C[C@H]3C)[C@@]1(C)OC(=O)/C(C)=C\C	6.07	3.89	4.06	5.25	9.77	5.21	8.18	5.28	5.34	5.67	7.52	5.73	5.25	9.76	7.55
